Assay results taken from PMC10218109, “Old Drug, New Delivery Strategy: MMAE Repackaged” (International Journal of Molecular Sciences, 2023).

Columns and labels:
[1] = biological target: T1, prostate specific membrane antigen (PSMA) (Homo sapiens, UniProt Q04609); assay: competitive radioligand binding on PSMA-positive LNCaP cells (reference ligand); format: cell-based
T1 construct: gene FOLH1

[2] = biological target: T1, prostate specific membrane antigen (PSMA); assay: competitive radioligand binding on PSMA-positive LNCaP cells vs […]Ga-PSMA-10; format: cell-based

T1 sequence (Q04609 whole entry): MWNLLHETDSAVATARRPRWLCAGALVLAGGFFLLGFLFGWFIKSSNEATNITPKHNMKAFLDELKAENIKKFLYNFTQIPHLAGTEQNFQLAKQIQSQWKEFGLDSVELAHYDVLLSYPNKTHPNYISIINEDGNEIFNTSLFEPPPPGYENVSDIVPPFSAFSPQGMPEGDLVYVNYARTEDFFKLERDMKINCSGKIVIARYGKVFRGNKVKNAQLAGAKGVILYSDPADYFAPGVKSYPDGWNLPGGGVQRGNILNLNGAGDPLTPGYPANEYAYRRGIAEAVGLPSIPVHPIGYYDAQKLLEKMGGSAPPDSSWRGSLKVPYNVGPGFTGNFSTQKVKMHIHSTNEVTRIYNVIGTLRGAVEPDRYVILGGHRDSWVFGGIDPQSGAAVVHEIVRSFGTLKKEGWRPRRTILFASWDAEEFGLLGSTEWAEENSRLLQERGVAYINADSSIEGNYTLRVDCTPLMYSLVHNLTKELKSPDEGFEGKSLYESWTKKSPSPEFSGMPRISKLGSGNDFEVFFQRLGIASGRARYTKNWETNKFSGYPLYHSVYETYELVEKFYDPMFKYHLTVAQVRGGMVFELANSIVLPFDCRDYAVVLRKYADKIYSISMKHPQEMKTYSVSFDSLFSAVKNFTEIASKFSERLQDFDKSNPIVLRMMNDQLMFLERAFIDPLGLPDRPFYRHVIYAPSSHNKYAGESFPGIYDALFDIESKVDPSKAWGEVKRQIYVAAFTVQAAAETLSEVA

| Structure (SMILES) | IC50 [1] [nM] | IC50 [2] [nM] |
| --- | --- | --- |
| O=C(O)CC[C@H](NC(=O)N[C@@H](CCCCNC(=O)[C@H](Cc1ccc2ccccc2c1)NC(=O)[C@H]1CC[C@H](CNC(=O)CN2CCN(CC(=O)O)CCN(CC(=O)O)CCN(CC(=O)O)CC2)CC1)C(=O)O)C(=O)O [PSMA-617] | 15.1 ± 3.8 |  |
| O=C(O)CCc1ccc(O)c(CN(CCN(CC(=O)O)Cc2cc(CCC(=O)NCCCCCC(=O)NCCCC[C@H](NC(=O)N[C@@H](CCC(=O)O)C(=O)O)C(=O)O)ccc2O)CC(=O)O)c1 [PSMA-11] | 17.4 ± 1.6 |  |
| NC[C@H]1CC[C@H](C(=O)N[C@@H](Cc2ccc3ccccc3c2)C(=O)NCCCC[C@H](NC(=O)N[C@@H](CCC(=O)O)C(=O)O)C(=O)O)CC1 [KuE-617] |  | 21.5 ± 1.9 |
